{"source": "patent EP2271935B1", "about": "“METHOD AND KIT FOR THE EX VIVO EVALUATION OF THE RESPONSE OF A TUMOR TO CONDITIONS TO BE TESTED” (Universität Leipzig, priority 2008, dated 2009)", "tested_on": "epithelial cell line KB (DSMZ ACC 136)", "assay": "MTT assay of proliferation under varied riboflavin content and light exposure", "assay_type": "cell-based, human", "excerpt": "To address this question, three media, a) the RPMI 1640 without riboflavin and phenol red that is used in the method according to the invention and was manufactured according to our specifications by Biochrom, as well as two different RPMI 1640 charges purchased from Invitrogen which were each containing 532 nmol/L riboflavin, b) a phenol red-free (Gibco 11835), and c) a conventional RPMI 1640 (Gibco 21875) with 13.284 µmol/L phenol red. All media were supplemented with 2 mmol/L L-alanyl-1-glutamine as stabilized glutamine source (Biochrom K0302 Lot 0755 S) and the same amount of 10% (v/v) of heat-inactivated fetal calf serum (FCS) that was purchased from Invitrogen (Lot 41Q7554K) with a yield of 198 nmol/L riboflavin. […] These medium concentrations define the riboflavin concentrations in controls (see below).\nIn addition to the influences exerted by the different types of media alone, the riboflavin-dependent impact on the outcome of the docetaxel treatment was investigated. For this purpose 100 µl/well of docetaxel dilutions containing threefold the concentration indicated were added into the wells of microwell plates. The following seven docetaxel concentrations were tested: 19.38, 38.75, 77.5, 155, 310, 620, and 1,240 pmol/L.\nTo examine photoactivation-dependent riboflavin-mediated effects disturbing the outcome of ex-vivo chemoresponse-evaluation by conventional cell culture medium, and in particular in the absence of flavin-protecting experimental conditions, varying amounts of riboflavin were added. A stock solution of 200 µM (-)-riboflavin (CAS 83-68-5, Sigma R9504, FW=376.37 g/mol, purity >99%, cell culture tested) in phosphate buffered saline was diluted to adjust in each case the highest final concentration in culture (this means: after completion of the assay by addition of the other two components to the final assay volume of 300 µL) to exactly 10 µmol/L. Serial log10-dilutions were made from this concentration in each corresponding medium. These gave final concentrations in cell culture of 10.000, 1.018, 0.12, and 0.03 µmol/L in the case of medium a) (the medium according to the method of the invention), and concentrations of 10.000, 1.449, 0.594, and 0.508 µmol/L using media b) and c).\nIn general, each combination of riboflavin and docetaxel were tested in duplicate, and controls without additional riboflavin in quadruplicate for each experimental setting in the same 96-well plate. The experimental conditions were as follows: For each of the used media, two different plates were prepared simultaneously and either handled completely under flavin-protecting conditions (illumination only by sodium discharge lamps with an emission wavelength of 589 nm [i]), or in the same bench (Thermo MSC 12) with the installed light inside their working chamber switched on. The dilution of docetaxel and those of riboflavin in the particular medium were prepared for all four plates of each medium type prior to the other working steps under flavin-protecting conditions. Thus the administrations of these dilutions took about 20 min either under flavin-protecting conditions or illuminated conditions. After completed preparation of the plates that thereafter contained 200 µL of both diluted compounds, the plates were incubated 2 h in the incubator to allow for adjustment of the appropriate pH.\nIn between the stock culture of KB was harvested by trypsination of a 3-days stock culture (exponential growth phase). Stock cultures of KB cells always were grown without any antibiotic or antimycotic in phenol red- and riboflavin-free RPMI 1640 supplemented with 10% (v/v) FCS and were adapted to this medium for more than five passages. They were always handled at room temperature or warmer and were never exposed to light other than the light of a sodium discharge lamp with an emission wavelength of 589 nm for at least five passages. […]", "note": "pIC50: −log10 of the molar value. Read-outs that look alike come from different tables or passages of the source."}
{"smiles": "CC(=O)O[C@@]12CO[C@@H]1C[C@H](O)[C@@]1(C)C(=O)[C@H](O)C3=C(C)[C@@H](OC(=O)[C@H](O)[C@@H](NC(=O)OC(C)(C)C)c4ccccc4)C[C@@](O)([C@@H](OC(=O)c4ccccc4)[C@H]21)C3(C)C", "note": "[docetaxel]", "values": [{"measurement": "pIC50", "setting": "Homo sapiens, Epithelial cell, 0.5 h, Plate No. 11; Riboflavin 499 nmol/L; medium c), bench lighting <30 min, read-out: IC50 for docetaxel normalized to medium control of medium with same riboflavin content", "value": 10.00}, {"measurement": "pIC50", "setting": "Homo sapiens, Epithelial cell, 0.5 h, Plate No. 11; Riboflavin 508 nmol/L; medium c) conventional RPMI 1640 with phenol red, bench lighting <30 min, read-out: IC50 for docetaxel with reference to control with same riboflavin content", "value": 9.55}, {"measurement": "pIC50", "setting": "Homo sapiens, Epithelial cell, 0.5 h, Plate No. 11; Riboflavin 508 nmol/L; medium c), bench lighting <30 min, read-out: IC50 for docetaxel normalized to medium control of medium with same riboflavin content", "value": 9.90}, {"measurement": "pIC50", "setting": "Homo sapiens, Epithelial cell, 0.5 h, Plate No. 11; Riboflavin 594 nmol/L; medium c) conventional RPMI 1640 with phenol red, bench lighting <30 min, read-out: IC50 for docetaxel with reference to control with same riboflavin content", "value": 9.63}, {"measurement": "pIC50", "setting": "Homo sapiens, Epithelial cell, 0.5 h, Plate No. 11; Riboflavin 594 nmol/L; medium c), bench lighting <30 min, read-out: IC50 for docetaxel normalized to medium control of medium with same riboflavin content", "value": 9.99}, {"measurement": "pIC50", "setting": "Homo sapiens, Epithelial cell, 0.5 h, Plate No. 11; Riboflavin 1449 nmol/L; medium c) conventional RPMI 1640 with phenol red, bench lighting <30 min, read-out: IC50 for docetaxel with reference to control with same riboflavin content", "value": 9.56}, {"measurement": "pIC50", "setting": "Homo sapiens, Epithelial cell, 0.5 h, Plate No. 11; Riboflavin 1449 nmol/L; medium c), bench lighting <30 min, read-out: IC50 for docetaxel normalized to medium control of medium with same riboflavin content", "value": 9.91}, {"measurement": "pIC50", "setting": "Homo sapiens, Epithelial cell, 0.5 h, Plate No. 11; Riboflavin 10000 nmol/L; medium c) conventional RPMI 1640 with phenol red, bench lighting <30 min, read-out: IC50 for docetaxel with reference to control with same riboflavin content", "value": 9.61}, {"measurement": "pIC50", "setting": "Homo sapiens, Epithelial cell, 0.5 h, Plate No. 11; Riboflavin 10000 nmol/L; medium c), bench lighting <30 min, read-out: IC50 for docetaxel normalized to medium control of medium with same riboflavin content", "value": 9.96}, {"measurement": "pIC50", "setting": "Homo sapiens, Epithelial cell, 0.5 h, Plate No. 12; Riboflavin 499 nmol/L; medium c) conventional RPMI 1640 with phenol red, bench lighting <30 min, daylight 30 min, read-out: IC50 for docetaxel with reference to control with same riboflavin content", "value": 9.47}, {"measurement": "pIC50", "setting": "Homo sapiens, Epithelial cell, 0.5 h, Plate No. 12; Riboflavin 499 nmol/L; medium c), bench lighting <30 min, daylight 30 min, read-out: IC50 for docetaxel normalized to medium control of medium with same riboflavin content", "value": 10.00}, {"measurement": "pIC50", "setting": "Homo sapiens, Epithelial cell, 0.5 h, Plate No. 12; Riboflavin 508 nmol/L; medium c) conventional RPMI 1640 with phenol red, bench lighting <30 min, daylight 30 min, read-out: IC50 for docetaxel with reference to control with same riboflavin content", "value": 9.62}, {"measurement": "pIC50", "setting": "Homo sapiens, Epithelial cell, 0.5 h, Plate No. 12; Riboflavin 508 nmol/L; medium c), bench lighting <30 min, daylight 30 min, read-out: IC50 for docetaxel normalized to medium control of medium with same riboflavin content", "value": 10.15}, {"measurement": "pIC50", "setting": "Homo sapiens, Epithelial cell, 0.5 h, Plate No. 12; Riboflavin 594 nmol/L; medium c) conventional RPMI 1640 with phenol red, bench lighting <30 min, daylight 30 min, read-out: IC50 for docetaxel with reference to control with same riboflavin content", "value": 9.70}, {"measurement": "pIC50", "setting": "Homo sapiens, Epithelial cell, 0.5 h, Plate No. 12; Riboflavin 594 nmol/L; medium c), bench lighting <30 min, daylight 30 min, read-out: IC50 for docetaxel normalized to medium control of medium with same riboflavin content", "value": 10.23}, {"measurement": "pIC50", "setting": "Homo sapiens, Epithelial cell, 0.5 h, Plate No. 12; Riboflavin 1449 nmol/L; medium c) conventional RPMI 1640 with phenol red, bench lighting <30 min, daylight 30 min, read-out: IC50 for docetaxel with reference to control with same riboflavin content", "value": 9.82}, {"measurement": "pIC50", "setting": "Homo sapiens, Epithelial cell, 0.5 h, Plate No. 12; Riboflavin 1449 nmol/L; medium c), bench lighting <30 min, daylight 30 min, read-out: IC50 for docetaxel normalized to medium control of medium with same riboflavin content", "value": 10.35}, {"measurement": "pIC50", "setting": "Homo sapiens, Epithelial cell, Plate No. 01; Riboflavin 20 nmol/L; medium a) RPMI 1640 without riboflavin and phenol red, flavin-protecting conditions, read-out: IC50 for docetaxel with reference to control with same riboflavin content", "value": 9.68}, {"measurement": "pIC50", "setting": "Homo sapiens, Epithelial cell, Plate No. 01; Riboflavin 20 nmol/L; medium a), flavin-protecting conditions, read-out: IC50 for docetaxel normalized to medium control of medium with same riboflavin content", "value": 10.00}, {"measurement": "pIC50", "setting": "Homo sapiens, Epithelial cell, Plate No. 01; Riboflavin 30 nmol/L; medium a) RPMI 1640 without riboflavin and phenol red, flavin-protecting conditions, read-out: IC50 for docetaxel with reference to control with same riboflavin content", "value": 9.69}, {"measurement": "pIC50", "setting": "Homo sapiens, Epithelial cell, Plate No. 01; Riboflavin 30 nmol/L; medium a), flavin-protecting conditions, read-out: IC50 for docetaxel normalized to medium control of medium with same riboflavin content", "value": 10.01}, {"measurement": "pIC50", "setting": "Homo sapiens, Epithelial cell, Plate No. 01; Riboflavin 120 nmol/L; medium a) RPMI 1640 without riboflavin and phenol red, flavin-protecting conditions, read-out: IC50 for docetaxel with reference to control with same riboflavin content", "value": 9.64}, {"measurement": "pIC50", "setting": "Homo sapiens, Epithelial cell, Plate No. 01; Riboflavin 120 nmol/L; medium a), flavin-protecting conditions, read-out: IC50 for docetaxel normalized to medium control of medium with same riboflavin content", "value": 9.96}, {"measurement": "pIC50", "setting": "Homo sapiens, Epithelial cell, Plate No. 01; Riboflavin 1018 nmol/L; medium a) RPMI 1640 without riboflavin and phenol red, flavin-protecting conditions, read-out: IC50 for docetaxel with reference to control with same riboflavin content", "value": 9.65}, {"measurement": "pIC50", "setting": "Homo sapiens, Epithelial cell, Plate No. 01; Riboflavin 1018 nmol/L; medium a), flavin-protecting conditions, read-out: IC50 for docetaxel normalized to medium control of medium with same riboflavin content", "value": 9.97}, {"measurement": "pIC50", "setting": "Homo sapiens, Epithelial cell, Plate No. 01; Riboflavin 10000 nmol/L; medium a) RPMI 1640 without riboflavin and phenol red, flavin-protecting conditions, read-out: IC50 for docetaxel with reference to control with same riboflavin content", "value": 9.59}]}
